Test results taken from patent US8653054B2, “2-(N-substituted piperazinyl) steroid derivatives” (Universite Laval, priority 2008, dated 2014).
Read-outs that look alike come from different tables or passages of the source.

Key:
[1] = test system: HL-60 acute promyelocytic leukemia cells; experiment: Cell proliferation assay (MTS) on HL-60 leukemia cells; format: cell-based, human;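 further: cells exposed to serially diluted compound for 3 days at 37 °C, then viable cell number read via MTS conversion to coloured formazan by metabolically active cells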
Protocol: (§1) All of the following cell lines were maintained under a CO2 humidified atmosphere at 37° C. The culture media were changed every 3-4 days and the cells were split once a week.
(§2) For the assay, the culture medium was the same.
(§3) The cell proliferation assay was performed using 3-(4,5-dimethylthiazol-2-yl)-5-(3-carboxymethoxyphenyl)2-(4-sulfophenyl)-2H-tetrazolium (MTS) (Cell Titer 96 Aqueous, Promega, USA). MTS is converted into water-soluble colored formazan by dehydrogenase enzymes present in metabolically active cells, which allows the measurement of the number of viable cells.
(§4) The cells were incubated at 37° C. and 5% CO2. The steroid derivatives of the present disclosure were dissolved in ethanol to prepare the 1×10^−2 M stock solutions. The stock solutions and doxorubicin (DOX) (Novapharm, Toronto, Canada) were diluted at multiple concentrations with culture media, added to each well, as indicated, and incubated for 3 days. Following each treatment, 20 μl MTS was added to each well and the mix was incubated for 4 h.

in vivo = conditions: male, Sprague-Dawley, rat, sc, 2.3 mg/kg
Protocol: Animals: Six to seven week-old male Sprague-Dawley rats (Crl:CD®(SD)Br VAF/Plus™) weighing approximately 220 g were obtained from Charles-River, Inc (St-Constant, Qc., Canada). The animals were acclimatized to environmental conditions (temperature: 22±3° C.; humidity: 50±20%; 12-h light/12-h dark cycles, lights on at 07:15 h) for at least 5 days before starting the experiment. The animals were housed three per cage and were allowed free access to water and a certified commercial rodent food (Rodent Diet #T.2018.15, Harlan Teklad, Madison, Wis., U.S.A.) and were randomized according to their body weight.
Assay: A pharmacokinetic study was carried out following one subcutaneous (s.c.) injection of the aminosteroids at one concentration (2.3 mg/kg of body weight in 0.5 mL of vehicle fluid). The compound was first dissolved in Ethanol (EtOH) followed by the addition of propylene glycol such that a final concentration of EtOH of 8% was obtained. During this experiment, the rats were housed individually and were fasted for 8h before injection of the aminosteroid. Blood samples for determination of aminosteroid plasma concentration were collected at the jugular vein (0.4 mL by animal) at target intervals of 3, 7, 12 and 24 h (or 3 and 12 h) post-dose from six rats per time point (Tables 5, 6 and 7). After the collect at 7 h, a replacement fluid (0.9% sodium chloride injection USP) was injected in the rat. Blood samples were collected in Microvette potassium-EDTA (ethylenediamine tetra-acetic acid)-coated tubes (Sarstedt, Aktiengesellchaft & Co, Germany) and centrifuged at 3200 rpm for 10 minutes at 4° C. The plasma was collected and stored at −80° C. until analyzed by liquid chromatography/mass spectrometry/mass spectrometry (LC/MS/MS) analysis.
Aminosteroid measurement: The concentration of the aminosteroid was determined by LC/MS/MS analysis using a procedure developed at the CHUQ (CHUL)—Research Center (Québec, Qc, Canada). Briefly, for extraction from serum, 100 νL, of the serum sample was transferred to individual tubes and 600 μL of ammonium acetate (1 mM) was added. A methanolic solution (50 μL) containing a steroidal internal standard was then added to each tube. Samples were transferred on Strata-X SPE columns (Phenomenex, Torrance, Calif., USA), which have been conditioned with 2 mL of MeOH and 2 mL of water. Each column was washed with 2 mL of MeOH:water (10:90, v/v). The aminosteroid was then eluted with 5 mL of MeOH containing 5 mM ammonium acetate. The MeOH was evaporated at 45° C. under inert atmosphere and the dried residue dissolved in 100 μL of MeOH:water (85:15, v/v). […] The inhibitor was detected using an API 3000 mass spectrometer, equipped with TurbolonSpray (Applied Biosystems, Canada). ESI in positive ion mode was used.

[2] = Plasmatic concentration (AUC) of aminosteroids after a single subcutaneous injection in rat; conditions: 2.3 mg/kg; for AUC (0-3 h) / AUC (0-12 h): Table 6, subcutaneous one time; for AUC (7 h) / AUC (24 h) / AUC(12 h): Table 5, subcutaneous one time
[3] = test system: MCF-7 breast cancer cells; experiment: Cell proliferation assay (MTS) on MCF-7 breast cancer cells; format: cell-based, human; conditions: Table 3, 3 days incubation
Protocol: MCF-7 breast cancer cells were maintained in Dulbecco's Modified Eagle's Medium (DMEM) containing a nutriment mixture F-12 ham (DME-F12) (Sigma, Saint Louis, USA) supplemented with 5% (v/v) fetal bovine serum (FBS), L-glutamine ([…]), penicillin (100 IU/ml), streptomycin sulphate (50 μg/ml) and estradiol (1 nM). For the assay, DME-F12 was supplemented with 5% (v/v) charcoal-strippes FBS, insulin (50 ng/ml) and the same concentrations of antibiotics as above.

[4] = test system: WI-38 diploid fibroblasts; experiment: Cell proliferation assay (MTS) on WI-38 normal fibroblasts; format: cell-based, human; conditions: Table 3, normal cells, 3 days incubation
Protocol: WI-38 diploid fibroblasts derived from embryonic human lung were cultured in MEM (devoid of the pH indicator phenol red) supplemented with 10% (v/v) FBS, L-glutamine (2 nM), penicillin (100 IU/ml), streptomycin sulphate (50 μg/ml), sodium pyruvate (1 mM) and non-essential amino acids (0.1 mM).
as §3, §4

[5] = test system: LNCaP prostate cancer cells; experiment: Cell proliferation assay (MTS) on LNCaP prostate cancer cells; format: cell-based; conditions: Table 3, 3 days incubation
Protocol: as §3, §4

[6] = test system: normal lymphocytes from peripheral blood; experiment: Cell proliferation assay (MTS) on normal lymphocytes; conditions: read-out: IC50 Lymph Norm.
Protocol: as §1, §2, §3, §4

[7] = test system: OVCAR-3 ovarian cancer cells; experiment: Cell proliferation assay (MTS) on OVCAR-3 ovarian cancer cells; format: cell-based
Text: For the assay, the culture medium was the same, but without estradiol.

[8] = test system: PC-3 (AR−) prostate cancer cells; experiment: Cell proliferation assay (MTS) on PC-3 (AR−) prostate cancer cells; format: cell-based; conditions: Table 3, 3 days incubation
Protocol: as §1, §2, §3, §4

[9] = test system: MDA-MB-231 (ER−) breast cancer cells; experiment: Cell proliferation assay (MTS) on MDA-MB-231 (ER−) breast cancer cells; format: cell-based; conditions: Table 3, 3 days incubation
Protocol: as §1, §2, §3, §4

K-562 leukemia cells = experiment: Cell proliferation assay (MTS) on K-562 leukemia cells; format: cell-based; conditions: Table 3, 3 days incubation
[10] = test system: Shionogi mammary carcinoma cells (AR+); experiment: Cell proliferation assay (MTS) on Shionogi mammary carcinoma cells; format: cell-based; conditions: Table 3, 3 days incubation
Protocol: Shionogi mammary carcinoma cells bearing androgen-sensitive (AR+) were routinely grown in Eagle's Minimal Essential Medium (MEM) (Sigma, Saint Louis, USA) supplemented with 5% (v/v) fetal bovine serum (FBS), penicillin (100 IU/ml), streptomycin sulphate (50 μg/ml), 1% (v/v) non-essential amino acids and dihydrotestosterone DHT (10^−8 M). For the assay, MEM devoid of the pH indicator phenol red was supplemented with 2% (v/v) charcoal-strippes FBS and the same concentrations of antibiotics and non-essential amino acids as above.

[11] = Homo sapiens, Table 4, HL-60 cancer cell line, read-out: IC50
[12] = Homo sapiens, Table 6, HL-60 cancer cell line, read-out: IC50 (HL-60)
[13] = Table 4, HL-60 cancer cell line, read-out: IC50
[14] = Table 6, HL-60 cancer cell line, read-out: IC50 (HL-60)
[15] = Homo sapiens, HL-60, 72 h, Table 3, 3 days incubation, MTS, read-out: IC50 HL-60
[16] = Homo sapiens, OVCAR-3, 72 h, Table 3, 3 days incubation, MTS
[17] = Table 3, normal lymphocytes, 3 days incubation, MTS
[18] = Table 3, 3 days incubation, MTS, read-out: IC50 HL-60
[19] = Table 3, 3 days incubation, MTS

SMILES: CO[C@H]1CC[C@H]2[C@@H]3CCC4C[C@H](O)[C@@H](N5CCN(C(=O)[C@@H]6CCCN6C(=O)c6ccc7ccccc7c6)CC5)C[C@]4(C)[C@H]3CC[C@]12C (stereo partly drawn) [37 (AH-55), {4-[(2β,3α,17β)-3-hydroxy-17-methoxyandrostan-2-yl]piperazin-1-yl}[(2S)-1-(naphthalen-2-ylcarbonyl)pyrrolidin-2-yl]methanone]
- IC50 [1, 11]: 4500 nM
- IC50 [1, 12]: 4500 nM
- AUC(0-t) (in vivo; AUC (0-3 h)): 50 ng·h/mL
- AUC(0-t) (in vivo; AUC (0-12 h)): 234 ng·h/mL

SMILES: C#C[C@]1(O)CC[C@H]2[C@@H]3CC[C@H]4C[C@H](O)[C@@H](N5CCN(C(=O)[C@@H]6CCCN6C(=O)c6ccc7ccccc7c6)CC5)C[C@]4(C)[C@H]3CC[C@@]21C [26 (AH-71), {4-[(2β,3α,5α,17α)-3,17-dihydroxypregn-20-yn-2-yl]piperazin-1-yl}[(2S)-1-(naphthalen-2-ylcarbonyl)pyrrolidin-2-yl]methanone]
- AUC (0-3 h) [2]: 278 ng·h/mL
- AUC (0-12 h) [2]: 1338 ng·h/mL
- IC50 [1, 13]: 1900 nM
- IC50 [1, 14]: 1900 nM

SMILES: C[C@]12C[C@H](N3CCN(C(=O)[C@@H]4CCCN4C(=O)c4ccc5ccccc5c4)CC3)[C@@H](OC(=O)c3ccccc3C(=O)O)C[C@@H]1CC[C@@H]1[C@@H]2CC[C@]2(C)[C@@H](OC(=O)c3ccccc3C(=O)O)CC[C@@H]12 [38 (AH-75), 2,2′-{[(2β,3α,5α,17β)-2-{4-[1-(naphthalen-2-ylcarbonyl)-L-prolyl]piperazin-1-yl}androstane-3,17-diyl]bis(oxycarbonyl)}dibenzoic acid]
- IC50 [1, 11]: > 10000 nM
- IC50 [1, 12]: > 10000 nM
- AUC(0-t) (in vivo; AUC (0-3 h)): 38 ng·h/mL
- AUC(0-t) (in vivo; AUC (0-12 h)): 72 ng·h/mL

SMILES: C[C@]12C[C@H](N3CCN(C(=O)[C@@H]4CCCN4C(=O)c4ccc(C#N)cc4)CC3)[C@@H](O)C[C@@H]1CC[C@@H]1[C@@H]2CC[C@]2(C)[C@@H](O)CC[C@@H]12 [PC-41, 4-{[(2S)-2-({4-[(2β,3α,5α,17β)-3,17-dihydroxyandrostan-2-yl]piperazin-1-yl}carbonyl)pyrrolidin-1-yl]carbonyl}benzonitrile]
- IC50 ([3]; Homo sapiens, MCF7, 72 h): 400 nM
- IC50 ([4]; Homo sapiens, WI-38, 72 h): > 10000 nM
- IC50 ([5]; Homo sapiens, LNCaP, 72 h): 1000 nM
- IC50 ([6]; Lymphocyte, 72 h): 19300 nM
- IC50 [1, 15]: 3100 nM
- IC50 [7, 16]: 800 nM
- IC50 ([8]; PC3/AR, 72 h): 6500 nM
- IC50 ([9]; Homo sapiens, MDA-MB-231, 72 h): > 10000 nM
- IC50 (K-562 leukemia cells; Homo sapiens, K562, 72 h): > 10000 nM
- IC50 ([10]; 72 h): 200 nM

SMILES: COc1cccc2c1C(=O)c1c(O)c3c(c(O)c1C2=O)C[C@@](O)(C(=O)CO)C[C@@H]3O[C@H]1C[C@H](N)[C@H](O)[C@H](C)O1 [Doxorubicin, reference compound]
- IC50 ([3]; Homo sapiens, MCF7, 72 h): > 10000 nM
- IC50 ([4]; Homo sapiens, WI-38, 72 h): 3000 nM
- IC50 ([5]; Homo sapiens, LNCaP, 72 h): 100 nM
- IC50 ([6]; Lymphocyte, 72 h): 160 nM
- IC50 [1, 15]: 80 nM
- IC50 ([7]; Homo sapiens, OVCAR-3): 900 nM
- IC50 [7, 16]: 900 nM
- IC50 ([8]; PC3/AR, 72 h): 900 nM
- IC50 ([9]; Homo sapiens, MDA-MB-231, 72 h): 900 nM
- IC50 (K-562 leukemia cells; Homo sapiens, K562, 72 h): 400 nM
- IC50 ([10]; 72 h): 1300 nM

SMILES: C[C@]12CC[C@H]3[C@@H](CCC4C[C@H](O)[C@@H](N5CCN(C(=O)[C@@H]6CCCN6C(=O)c6ccc7ncccc7c6)CC5)C[C@@]43C)[C@@H]1CC[C@@H]2O (stereo partly drawn) [32 (AH-47), {4-[(2β,3α,17β)-3,17-dihydroxyandrostan-2-yl]piperazin-1-yl}[(2S)-1-(quinolin-6-ylcarbonyl)pyrrolidin-2-yl]methanone]
- IC50 [1, 11]: 4700 nM
- IC50 [1, 12]: 4700 nM
- AUC(0-t) (in vivo; AUC (0-3 h)): 292 ng·h/mL
- AUC(0-t) (in vivo; AUC (0-12 h)): 1170 ng·h/mL

SMILES: C[C@]12CC[C@H]3[C@@H](CCC4C[C@H](O)[C@@H](N5CCN(C(=O)[C@@H]6CCCN6C(=O)c6cc7ccccc7cn6)CC5)C[C@@]43C)[C@@H]1CC[C@@H]2O (stereo partly drawn) [31 (AH-38), {4-[(2β,3α,17β)-3,17-dihydroxyandrostan-2-yl]piperazin-1-yl}[(2S)-1-(isoquinolin-3-ylcarbonyl)pyrrolidin-2-yl]methanone]
- IC50 [1, 11]: 1600 nM
- IC50 [1, 12]: 1600 nM
- AUC(0-t) (in vivo; AUC (0-3 h)): 244 ng·h/mL
- AUC(0-t) (in vivo; AUC (0-12 h)): 991 ng·h/mL

SMILES: C[C@]12CC[C@H]3[C@@H](CCC4C[C@H](O)[C@@H](N5CCN(C(=O)[C@@H]6CCCN6C(=O)c6ccc7ccccc7n6)CC5)C[C@@]43C)[C@@H]1CC[C@@H]2O (stereo partly drawn) [33 (AH-62), {4-[(2β,3α,17β)-3,17-dihydroxyandrostan-2-yl]piperazin-1-yl}[(2S)-1-(quinolin-2-ylcarbonyl)pyrrolidin-2-yl]methanone]
- IC50 [1, 11]: 1400 nM
- IC50 [1, 12]: 1400 nM
- AUC(0-t) (in vivo; AUC (0-3 h)): 185 ng·h/mL
- AUC(0-t) (in vivo; AUC (0-12 h)): 752 ng·h/mL

SMILES: C=C(C)[C@H]1CC=C(C(=O)N2CCC[C@H]2C(=O)N2CCN([C@H]3C[C@@]4(C)[C@@H](CC[C@@H]5[C@@H]4CC[C@]4(C)[C@@H](O)CC[C@@H]54)C[C@@H]3O)CC2)CC1 [PC-46]
- IC50 [3]: 700 nM
- AUC (7 h) [2]: 771 ng·h/mL
- AUC (24 h) [2]: 830 ng·h/mL
- AUC(12 h) [2]: 830 ng·h/mL
- IC50 [4]: > 10000 nM
- IC50 [5]: 900 nM
- IC50 [6, 17]: 9300 nM
- IC50 [1, 18]: 1900 nM
- IC50 [7, 19]: 1300 nM
- IC50 [8]: 4000 nM
- IC50 [9]: > 10000 nM
- IC50 (K-562 leukemia cells): 14100 nM
- IC50 [10]: 200 nM

SMILES: C[C@]12C[C@H](N3CCN(C(=O)[C@@H]4CCCN4C(=O)/C=C/c4ccccc4)CC3)[C@@H](O)C[C@@H]1CC[C@@H]1[C@@H]2CC[C@]2(C)[C@@H](O)CC[C@@H]12 [PC-42]
- IC50 [3]: 400 nM
- AUC (7 h) [2]: 641 ng·h/mL
- AUC (24 h) [2]: 767 ng·h/mL
- AUC(12 h) [2]: 751 ng·h/mL
- IC50 [4]: > 10000 nM
- IC50 [5]: 500 nM
- IC50 [6, 17]: 7900 nM
- IC50 [1, 18]: 1500 nM
- IC50 [7, 19]: 800 nM
- IC50 [8]: 4000 nM
- IC50 [9]: > 10000 nM
- IC50 (K-562 leukemia cells): 9300 nM
- IC50 [10]: 200 nM

SMILES: C[C@]12CC[C@H]3[C@@H](CCC4C[C@H](OS(N)(=O)=O)[C@@H](N5CCN(C(=O)[C@@H]6CCCN6C(=O)c6ccc7ccccc7c6)CC5)C[C@@]43C)[C@@H]1CC[C@@H]2OS(N)(=O)=O (stereo partly drawn) [39 (AH-70), (2β,3α,17β)-2-{4-[1-(naphthalen-2-ylcarbonyl)-L-prolyl]piperazin-1-yl}androstane-3,17-diyl disulfamate]
- IC50 [1, 11]: 5000 nM
- IC50 [1, 12]: 5000 nM
- AUC(0-t) (in vivo; AUC (0-3 h)): 11 ng·h/mL
- AUC(0-t) (in vivo; AUC (0-12 h)): 67 ng·h/mL

SMILES: CC[C@]1(O)CC[C@H]2[C@@H]3CC[C@H]4C[C@H](O)[C@@H](N5CCN(C(=O)[C@@H]6CCCN6C(=O)c6cccc7ccccc67)CC5)C[C@]4(C)[C@H]3CC[C@@]21C [LPC-37]
- AUC (7 h) [2]: 372 ng·h/mL
- AUC (24 h) [2]: 681 ng·h/mL
- AUC(12 h) [2]: 525 ng·h/mL

SMILES: C[C@]12C[C@H](N3CCN(C(=O)[C@@H]4CCCN4C(=O)c4ccc5ccccc5c4)CC3)[C@@H](O)C[C@@H]1CC[C@@H]1[C@@H]2CC[C@@]2(C)[C@H]1CC[C@]2(C)O [30 (AH-56), {4-[(2β,3α,17β)-3,17-dihydroxy-17-methylandrostan-2-yl]piperazin-1-yl}[(2S)-1-(naphthalen-2-ylcarbonyl)pyrrolidin-2-yl]methanone]
- AUC (0-3 h) [2]: 183 ng·h/mL
- AUC (0-12 h) [2]: 876 ng·h/mL
- IC50 [1, 13]: 4700 nM
- IC50 [1, 14]: 4700 nM
